In brackets after ≈: the same amount, converted by molar mass.
How the values were obtained:
Assay type in all cases: cell-based
[1] = system: Staphylococcus aureus FDA 209PJc-1; test: Antibacterial activity, agar-dilution MIC, organism No. 1; conditions: Staphylococcus aureus, FDA209PJC1; Organism No. 1, bouillon-agar; read-out: Minimum Inhibitory Concentration
In short: (§1)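 Minimum inhibitory concentration determined on solid bouillon agar by the agar-dilution technique, with values stated as μg/ml.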

[2] = system: Staphylococcus aureus Terajima; test: Antibacterial activity, agar-dilution MIC, organism No. 2; conditions: Staphylococcus aureus; Organism No. 2, bouillon-agar; read-out: Minimum Inhibitory Concentration
In short: as §1

[3] = system: Staphylococcus aureus MS 353; test: Antibacterial activity, agar-dilution MIC, organism No. 3; conditions: Staphylococcus aureus, MS353; Organism No. 3, bouillon-agar; read-out: Minimum Inhibitory Concentration
In short: as §1

[4] = system: Streptococcus pyogenes Cook; test: Antibacterial activity, agar-dilution MIC, organism No. 4; conditions: Streptococcus pyogenes; Organism No. 4, bouillon-agar; read-out: Minimum Inhibitory Concentration
In short: as §1

[5] = system: Escherichia coli NIHJ-JC-2; test: Antibacterial activity, agar-dilution MIC, organism No. 5; conditions: Escherichia coli, NIHJJC2; Organism No. 5, bouillon-agar; read-out: Minimum Inhibitory Concentration
In short: as §1

[6] = system: Escherichia coli K12 C600 IAM 1264; test: Antibacterial activity, agar-dilution MIC, organism No. 6; conditions: Escherichia coli, IAM1264; Organism No. 6, bouillon-agar; read-out: Minimum Inhibitory Concentration
In short: as §1

[7] = system: Klebsiella pneumoniae PCI-602; test: Antibacterial activity, agar-dilution MIC, organism No. 7; conditions: Klebsiella pneumoniae, PCI602; Organism No. 7, bouillon-agar; read-out: Minimum Inhibitory Concentration
In short: as §1

[8] = system: Salmonella typhimurium IID 971; test: Antibacterial activity, agar-dilution MIC, organism No. 8; conditions: Salmonella enterica; Organism No. 8, bouillon-agar; read-out: Minimum Inhibitory Concentration
In short: as §1

Salmonella typhi 901 = test: Antibacterial activity, agar-dilution MIC, organism No. 9; conditions: Salmonella enterica, TYPHI, read-out: Minimum Inhibitory Concentration
In short: as §1

[9] = system: Salmonella paratyphi-A 1015; test: Antibacterial activity, agar-dilution MIC, organism No. 10; conditions: Salmonella enterica, PARATYPHI, read-out: Minimum Inhibitory Concentration
In short: as §1

[10] = system: Salmonella shottmuelleri 8006; test: Antibacterial activity, agar-dilution MIC, organism No. 11; conditions: Salmonella, 8006; Organism No. 11, bouillon-agar; read-out: Minimum Inhibitory Concentration
In short: as §1

[11] = system: Salmonella enteritidis G 14; test: Antibacterial activity, agar-dilution MIC, organism No. 12; conditions: Salmonella enterica, ENTERITIDIS; Organism No. 12, bouillon-agar; read-out: Minimum Inhibitory Concentration
In short: as §1

[12] = system: Serratia marcescens IAM 1184; test: Antibacterial activity, agar-dilution MIC, organism No. 13; conditions: Serratia marcescens, IAM1184; Organism No. 13, bouillon-agar; read-out: Minimum Inhibitory Concentration
In short: as §1

[13] = system: Bacillus subtilis ATCC 6633; test: Antibacterial activity, agar-dilution MIC, organism No. 14; conditions: Bacillus subtilis, ATCC6633; Organism No. 14, bouillon-agar; read-out: Minimum Inhibitory Concentration
In short: as §1

[14] = system: Pseudomonas aeruginosa IFO 3445; test: Antibacterial activity, agar-dilution MIC, organism No. 15; conditions: Pseudomonas aeruginosa, IFO3445; Organism No. 15, bouillon-agar; read-out: Minimum Inhibitory Concentration
In short: as §1

[15] = system: Pseudomonas aeruginosa NCTC 10490; test: Antibacterial activity, agar-dilution MIC, organism No. 16; conditions: Pseudomonas aeruginosa, NCTC10490; Organism No. 16, bouillon-agar; read-out: Minimum Inhibitory Concentration
In short: as §1

[16] = system: Pseudomonas aeruginosa PAO 1; test: Antibacterial activity, agar-dilution MIC, organism No. 17; conditions: Pseudomonas aeruginosa, PAO1; Organism No. 17, bouillon-agar; read-out: Minimum Inhibitory Concentration
In short: as §1

[17] = system: Proteus morganii IFO 3848; test: Antibacterial activity, agar-dilution MIC, organism No. 18; conditions: Morganella morganii, IFO3848; Organism No. 18, bouillon-agar; read-out: Minimum Inhibitory Concentration
In short: as §1

[18] = system: Proteus mirabilis IFO 3849; test: Antibacterial activity, agar-dilution MIC, organism No. 19; conditions: Proteus mirabilis, IFO3849; Organism No. 19, bouillon-agar; read-out: Minimum Inhibitory Concentration
In short: as §1

Proteus vulgaris OX-19 = test: Antibacterial activity, agar-dilution MIC, organism No. 20; conditions: Proteus vulgaris, OX19; Organism No. 20, bouillon-agar; read-out: Minimum Inhibitory Concentration
In short: as §1

Proteus vulgaris HX-19 = test: Antibacterial activity, agar-dilution MIC, organism No. 21; conditions: Proteus vulgaris, HX19; Organism No. 21, bouillon-agar; read-out: Minimum Inhibitory Concentration
In short: as §1

[19] = system: Proteus rettgeri IFO 3850; test: Antibacterial activity, agar-dilution MIC, organism No. 22; conditions: Providencia rettgeri, IFO3850; Organism No. 22, bouillon-agar; read-out: Minimum Inhibitory Concentration
In short: as §1

[20] = system: Enterobacter aerogenes ATCC 13048; test: Antibacterial activity, agar-dilution MIC, organism No. 23; conditions: Klebsiella aerogenes, ATCC13048; Organism No. 23, bouillon-agar; read-out: Minimum Inhibitory Concentration
In short: as §1

Enterobacter cloacae 963 = test: Antibacterial activity, agar-dilution MIC, organism No. 24; conditions: Enterobacter cloacae, 963; Organism No. 24, bouillon-agar; read-out: Minimum Inhibitory Concentration
In short: as §1

[21] = system: Micrococcus luteus ATCC 9341; test: Antibacterial activity, agar-dilution MIC, organism No. 25; conditions: Micrococcus luteus, ATCC9341; Organism No. 25, bouillon-agar; read-out: Minimum Inhibitory Concentration
In short: as §1

[22] = system: Streptococcus pyogenes IFO 3340; test: Antibacterial activity, agar-dilution MIC, organism No. 26; conditions: Streptococcus pyogenes, IFO3340; Organism No. 26, bouillon-agar; read-out: Minimum Inhibitory Concentration
In short: as §1

[23] = system: Streptococcus faecium IFO 3826; test: Antibacterial activity, agar-dilution MIC, organism No. 27; conditions: Enterococcus faecium, IFO3826; Organism No. 27, bouillon-agar; read-out: Minimum Inhibitory Concentration
In short: as §1

[24] = system: Mycoplasma pneumoniae IID817; test: Antimycoplasmal activity, MIC by phenol red colour change, organism No. 28; conditions: Mycoplasma, IID817; Organism No. 28, PPLO broth + 1% glucose, 37° C.; read-out: Minimum Inhibitory Concentration (MIC)
Experimental: Mycoplasma pneumoniae IID817 was used as the test microorganism in a culture medium prepared by adding 1% of glucose to "PPLO broth (manufactured by Difco Co.) liquid culture medium" at 37° C. with phenol red as an indicator, thereby culturing the test microorganism.

[25] = system: Candida albicans IAM 4905; test: Antifungal activity, agar-dilution MIC, organism No. 29; conditions: Candida albicans, IAM4905; Organism No. 29, bouillon-agar; read-out: Minimum Inhibitory Concentration
In short: as §1

[26] = system: Aspergillus niger IFO 6342; test: Antifungal activity, agar-dilution MIC, organism No. 30; conditions: Aspergillus niger, IFO6342; Organism No. 30, bouillon-agar; read-out: Minimum Inhibitory Concentration
In short: as §1

`[C-]#[N+]C12CC3(/C=C/C(=O)OCc4cccc(OC)c4)OC3C1O2` (stereo not drawn) [compound 12] was tested, and the MIC [1] was 1.56 µg/mL (≈ 4.98 µM), the MIC [2] was 3.13 µg/mL (≈ 9.99 µM) and the MIC [3] was 0.78 µg/mL (≈ 2.49 µM). It also gave an MIC [4] of 3.13 µg/mL (≈ 9.99 µM), an MIC [5] of 6.25 µg/mL (≈ 19.9 µM) and an MIC [6] of 6.25 µg/mL (≈ 19.9 µM). For the same molecule, the MIC [7] was 0.39 µg/mL (≈ 1.24 µM), the MIC [8] was 6.25 µg/mL (≈ 19.9 µM) and the MIC (Salmonella typhi 901) was 3.13 µg/mL (≈ 9.99 µM). It also gave an MIC [9] of 3.13 µg/mL (≈ 9.99 µM), an MIC [10] of 3.13 µg/mL (≈ 9.99 µM) and an MIC [11] of 3.13 µg/mL (≈ 9.99 µM). It also gave an MIC [12] of 12.5 µg/mL (≈ 39.9 µM), an MIC [13] of 1.56 µg/mL (≈ 4.98 µM) and an MIC [14] greater than 100 µg/mL. It also gave an MIC [15] greater than 100 µg/mL, an MIC [16] greater than 100 µg/mL and an MIC [17] of 1.56 µg/mL (≈ 4.98 µM). The MIC [18] was 3.13 µg/mL (≈ 9.99 µM), the MIC (Proteus vulgaris OX-19) was 0.78 µg/mL (≈ 2.49 µM) and the MIC (Proteus vulgaris HX-19) was less than 0.1 µg/mL. For the same molecule, the MIC [19] was greater than 100 µg/mL, the MIC [20] was greater than 100 µg/mL and the MIC (Enterobacter cloacae 963) was greater than 100 µg/mL. The MIC [21] was less than 0.1 µg/mL, the MIC [22] was 3.13 µg/mL (≈ 9.99 µM) and the MIC [23] was 3.13 µg/mL (≈ 9.99 µM). For the same molecule, the MIC [24] was 0.4 µg/mL, the MIC [25] was 1.56 µg/mL (≈ 4.98 µM) and the MIC [26] was 3.13 µg/mL (≈ 9.99 µM).

Molecule `[C-]#[N+]C12CC3(/C=C/C(=O)Nc4ccc(I)cc4)OC3C1O2` (stereo not drawn) [compound 45] has an MIC [1] of 12.5 µg/mL (≈ 31.7 µM), an MIC [2] greater than 200 µg/mL and an MIC [3] of 12.5 µg/mL (≈ 31.7 µM). It also gave an MIC [4] greater than 200 µg/mL, an MIC [5] greater than 200 µg/mL and an MIC [6] greater than 200 µg/mL. For the same molecule, the MIC [7] was 6.25 µg/mL (≈ 15.9 µM), the MIC [8] was greater than 200 µg/mL and the MIC (Salmonella typhi 901) was greater than 200 µg/mL. The MIC [9] was greater than 200 µg/mL, the MIC [10] was 50 µg/mL (≈ 127 µM) and the MIC [11] was greater than 200 µg/mL. The MIC [12] was greater than 200 µg/mL, the MIC [13] was greater than 200 µg/mL and the MIC [14] was greater than 200 µg/mL. The MIC [15] was greater than 200 µg/mL, the MIC [16] was greater than 200 µg/mL and the MIC [17] was 100 µg/mL (≈ 254 µM). The MIC [18] was greater than 200 µg/mL, the MIC (Proteus vulgaris OX-19) was 0.78 µg/mL (≈ 1.98 µM) and the MIC (Proteus vulgaris HX-19) was 0.78 µg/mL (≈ 1.98 µM). It also gave an MIC [19] greater than 200 µg/mL, an MIC [20] greater than 200 µg/mL and an MIC (Enterobacter cloacae 963) greater than 200 µg/mL. It also gave an MIC [21] of less than 0.05 µg/mL, an MIC [22] greater than 200 µg/mL and an MIC [23] greater than 200 µg/mL. It also gave an MIC [24] of less than 0.2 µg/mL, an MIC [25] of 3.13 µg/mL (≈ 7.94 µM) and an MIC [26] of 3.13 µg/mL (≈ 7.94 µM).

Molecule `[C-]#[N+]C12CC3(/C=C/C(=O)Nc4cccc(C(=O)OC)c4)OC3C1O2` (stereo not drawn) [compound 50] has an MIC [1] of 0.2 µg/mL (≈ 0.613 µM), an MIC [2] of 1.56 µg/mL (≈ 4.78 µM) and an MIC [3] of 0.39 µg/mL (≈ 1.2 µM). It also gave an MIC [4] of 200 µg/mL (≈ 613 µM), an MIC [5] greater than 200 µg/mL and an MIC [6] greater than 200 µg/mL. It also gave an MIC [7] of 0.39 µg/mL (≈ 1.2 µM), an MIC [8] of 50 µg/mL (≈ 153 µM) and an MIC (Salmonella typhi 901) of 25 µg/mL (≈ 76.6 µM). The MIC [9] was 6.25 µg/mL (≈ 19.2 µM), the MIC [10] was 1.56 µg/mL (≈ 4.78 µM) and the MIC [11] was 6.25 µg/mL (≈ 19.2 µM). It also gave an MIC [12] greater than 200 µg/mL, an MIC [13] of 6.25 µg/mL (≈ 19.2 µM) and an MIC [14] greater than 200 µg/mL. The MIC [15] was greater than 200 µg/mL, the MIC [16] was greater than 200 µg/mL and the MIC [17] was 1.56 µg/mL (≈ 4.78 µM). The MIC [18] was greater than 200 µg/mL, the MIC (Proteus vulgaris OX-19) was 1.56 µg/mL (≈ 4.78 µM) and the MIC (Proteus vulgaris HX-19) was 0.1 µg/mL (≈ 0.306 µM). For the same molecule, the MIC [19] was 6.25 µg/mL (≈ 19.2 µM), the MIC [20] was greater than 200 µg/mL and the MIC (Enterobacter cloacae 963) was 200 µg/mL (≈ 613 µM). It also gave an MIC [21] of less than 0.05 µg/mL, an MIC [22] of 1.56 µg/mL (≈ 4.78 µM) and an MIC [23] of 12.5 µg/mL (≈ 38.3 µM). For the same molecule, the MIC [24] was less than 0.2 µg/mL, the MIC [25] was 0.79 µg/mL (≈ 2.42 µM) and the MIC [26] was 1.56 µg/mL (≈ 4.78 µM).
